The results in this text go back to ChEMBL document CHEMBL1201862, “PubChem BioAssay data set” (2004).

Activity calls are given as the source filed them.

In general, EC50 refers to the concentration giving half of the maximal effect. In general, AC50 refers to the concentration giving half of the maximal activity seen. One may read the Ki as a dissociation constant, usually derived from enzyme kinetics or from competition with a known ligand.

Assay [1] deals with BJ. The assay is described as follows: BJ-TERT-LT-ST fibroblast viability loss – cell-based, RAS-independent, luminescence, dose response (AID 1935).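 Note: BJ fibroblasts immortalized with TERT plus LT and ST oncogenes.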 It is filed as functional. Particulars: Homo sapiens.
Assay [2] is described as follows: DRD fibroblast viability loss – cell-based, non-viral oncogenic, luminescence, dose response (AID 1934). Format: functional. The settings on record: Homo sapiens.
Assay [3] addresses T1, Bcl-2-related protein A1 (Mus musculus, UniProt Q07440).
T1 sequence (Q07440 whole entry): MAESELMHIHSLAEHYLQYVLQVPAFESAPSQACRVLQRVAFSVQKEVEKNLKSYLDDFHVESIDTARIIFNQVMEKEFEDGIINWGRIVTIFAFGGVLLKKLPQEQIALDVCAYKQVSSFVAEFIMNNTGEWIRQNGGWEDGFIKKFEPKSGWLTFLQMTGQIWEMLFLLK
Format: functional.

For assay [4], the target named is T2, Ubiquitin-conjugating enzyme E2 N (Homo sapiens, UniProt P61088).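 Note: Dose-response confirmation in a TR-FRET assay detecting UBC13-driven polyubiquitin chain formation, inhibition measured.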
T2 sequence (P61088 whole entry): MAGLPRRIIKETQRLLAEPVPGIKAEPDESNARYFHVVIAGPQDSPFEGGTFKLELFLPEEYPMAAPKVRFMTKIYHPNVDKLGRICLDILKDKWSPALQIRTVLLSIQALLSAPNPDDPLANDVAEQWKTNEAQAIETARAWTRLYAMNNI
It is filed as functional.

A short description of assay [5]: toxicity toward cultured mammalian cells – cell-based, plate reader, cherry-pick samples, cytotoxicity control, dose response (AID 504397). It is filed as functional.
The test system of assay [6] is HEK293. The assay is described as follows: optical interference in Abeta FP readout, dose response, artefact control for IDE activator project, biochemical, fluorescence polarization (AID 588442). The settings on record: Homo sapiens. It is filed as functional, cell-based. A general note: Polarisation of emitted light reports the rotation of a fluorescent probe.
Assay [7] has as its target Small ubiquitin-related modifier 1 (Homo sapiens, UniProt P63165). The assay is described as follows: SUMO1 protein interaction blockers, potency – biochemical, fluorescence polarization, uHTS hits, dose response (AID 624382). It is filed as functional. The settings on record: read-out: IC50_Mean.
Assay [8] concerns the target T3, Rac GTPase-activating protein 1 (Homo sapiens, UniProt Q9H0H5).
T3 sequence (Q9H0H5 whole entry): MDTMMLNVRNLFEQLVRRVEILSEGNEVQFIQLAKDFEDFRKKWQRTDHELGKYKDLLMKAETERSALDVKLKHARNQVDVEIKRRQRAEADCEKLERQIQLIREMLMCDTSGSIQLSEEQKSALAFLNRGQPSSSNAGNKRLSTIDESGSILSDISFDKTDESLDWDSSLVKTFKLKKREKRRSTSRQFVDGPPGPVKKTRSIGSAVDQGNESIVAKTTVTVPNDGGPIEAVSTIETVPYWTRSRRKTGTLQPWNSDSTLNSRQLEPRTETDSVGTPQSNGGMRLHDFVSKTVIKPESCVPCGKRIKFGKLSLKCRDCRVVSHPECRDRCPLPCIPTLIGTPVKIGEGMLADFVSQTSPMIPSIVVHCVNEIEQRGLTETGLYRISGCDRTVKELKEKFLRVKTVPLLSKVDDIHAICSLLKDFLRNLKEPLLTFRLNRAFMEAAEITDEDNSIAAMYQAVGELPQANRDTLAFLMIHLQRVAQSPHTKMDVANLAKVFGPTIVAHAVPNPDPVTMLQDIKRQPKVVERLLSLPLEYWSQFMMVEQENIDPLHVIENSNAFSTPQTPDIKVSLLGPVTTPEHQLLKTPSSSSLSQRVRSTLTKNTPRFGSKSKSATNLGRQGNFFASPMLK
The assay is described as follows: blockers of MgcRacGAP-driven Rac1 GTP hydrolysis – biochemical, ADP Hunter fluorescence, primary and confirmatory, confirmation (AID 624330). Format: functional.

The target of assay [9] is Serine/threonine-protein kinase PLK3 (Homo sapiens, UniProt Q9H4B4). It is filed as functional.
For assay [10], the target named is 5'-AMP-activated protein kinase catalytic subunit alpha-1 (Homo sapiens, UniProt Q13131). It is filed as functional.
In assay [11] the target is Ribosomal protein S6 kinase beta-1 (Homo sapiens, UniProt P23443). Format: functional.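 Note: measured as one member of a kinome-wide profiling panel.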
The target of assay [12] is Mitogen-activated protein kinase 13 (Homo sapiens, UniProt O15264). Format: functional.
The target of assay [13] is Non-receptor tyrosine-protein kinase TYK2 (Homo sapiens, UniProt P29597). It is filed as functional.
Assay [14] deals with Protein kinase C gamma type (Homo sapiens, UniProt P05129). Format: functional.
The target of assay [15] is Inhibitor of nuclear factor kappa-B kinase subunit alpha (Homo sapiens, UniProt O15111). Format: functional.
In assay [16] the target is Receptor-type tyrosine-protein kinase FLT3 (Homo sapiens, UniProt P36888). Format: functional.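 Note: FLT3 was tested as one member of a kinome-wide kinase panel.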
For assay [17], the target named is MAP kinase-activated protein kinase 3 (Homo sapiens, UniProt Q16644). Format: functional.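 Note: value comes from a kinome-wide profiling panel in which MAPKAPK3 is one of the panel members.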
For assay [18], the target named is Casein kinase I isoform delta (Homo sapiens, UniProt P48730). Format: functional.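 Note: measured as one member (CSNK1D) of a kinome panel.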
Assay [19] deals with Cyclin-dependent kinase 5 (Homo sapiens, UniProt Q00535). Format: functional.
In assay [20] the target is Interleukin-1 receptor-associated kinase 4 (Homo sapiens, UniProt Q9NWZ3). Format: functional.
The target in assay [21] is Rho-associated protein kinase 1 (Homo sapiens, UniProt Q13464). It is filed as functional.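 Note: measured within a broad kinome-wide panel profiling many kinases.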
The target of assay [22] is Calcium/calmodulin-dependent protein kinase type 1 (Homo sapiens, UniProt Q14012). Format: functional.
In assay [23] the target is Cyclin-dependent kinase 1 (Homo sapiens, UniProt P06493). It is filed as functional.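 Note: Kinome-wide panel profiling, with the target listed as panel member CDC2.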
Assay [24] addresses Fibroblast growth factor receptor 3 (Homo sapiens, UniProt P22607). Format: functional.
Assay [25] has as its target Glycogen synthase kinase-3 beta (Homo sapiens, UniProt P49841). It is filed as functional.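 Note: value comes from a broad kinome profiling panel, with GSK3B as the panel member.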
The target of assay [26] is Macrophage colony-stimulating factor 1 receptor (Homo sapiens, UniProt P07333). It is filed as functional.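 Note: value comes from the Navigating the Kinome screening panel, CSF1R member.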

Sequence of Cyclin-dependent kinase 5 (Q00535 whole entry): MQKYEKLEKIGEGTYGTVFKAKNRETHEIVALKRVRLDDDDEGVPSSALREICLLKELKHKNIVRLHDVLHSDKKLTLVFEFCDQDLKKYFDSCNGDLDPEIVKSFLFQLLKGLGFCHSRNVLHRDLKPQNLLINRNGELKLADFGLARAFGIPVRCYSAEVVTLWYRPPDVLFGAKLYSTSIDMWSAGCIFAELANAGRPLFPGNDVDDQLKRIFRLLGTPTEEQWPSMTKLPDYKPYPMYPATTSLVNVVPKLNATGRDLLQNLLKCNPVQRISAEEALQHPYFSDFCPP
Sequence of Calcium/calmodulin-dependent protein kinase type 1 (Q14012 whole entry): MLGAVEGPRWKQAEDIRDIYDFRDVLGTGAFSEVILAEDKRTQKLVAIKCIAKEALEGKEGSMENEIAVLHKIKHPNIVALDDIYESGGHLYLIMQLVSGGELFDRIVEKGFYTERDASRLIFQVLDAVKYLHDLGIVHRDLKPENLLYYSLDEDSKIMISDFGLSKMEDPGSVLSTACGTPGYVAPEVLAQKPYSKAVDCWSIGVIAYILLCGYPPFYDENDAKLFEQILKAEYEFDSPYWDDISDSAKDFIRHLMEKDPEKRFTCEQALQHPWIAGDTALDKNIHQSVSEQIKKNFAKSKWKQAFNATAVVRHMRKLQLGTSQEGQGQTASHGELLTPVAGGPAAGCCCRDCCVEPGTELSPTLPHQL
Sequence of Mitogen-activated protein kinase 13 (O15264 whole entry): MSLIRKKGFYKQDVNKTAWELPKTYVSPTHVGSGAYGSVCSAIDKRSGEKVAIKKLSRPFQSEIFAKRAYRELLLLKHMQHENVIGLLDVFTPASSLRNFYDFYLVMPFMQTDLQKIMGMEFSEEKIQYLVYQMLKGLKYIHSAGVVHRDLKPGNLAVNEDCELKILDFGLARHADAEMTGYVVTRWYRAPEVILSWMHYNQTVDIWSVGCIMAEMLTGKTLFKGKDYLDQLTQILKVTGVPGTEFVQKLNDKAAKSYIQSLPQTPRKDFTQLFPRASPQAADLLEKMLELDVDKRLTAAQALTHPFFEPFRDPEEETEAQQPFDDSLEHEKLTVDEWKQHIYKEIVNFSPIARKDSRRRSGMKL
Sequence of Glycogen synthase kinase-3 beta (P49841 whole entry): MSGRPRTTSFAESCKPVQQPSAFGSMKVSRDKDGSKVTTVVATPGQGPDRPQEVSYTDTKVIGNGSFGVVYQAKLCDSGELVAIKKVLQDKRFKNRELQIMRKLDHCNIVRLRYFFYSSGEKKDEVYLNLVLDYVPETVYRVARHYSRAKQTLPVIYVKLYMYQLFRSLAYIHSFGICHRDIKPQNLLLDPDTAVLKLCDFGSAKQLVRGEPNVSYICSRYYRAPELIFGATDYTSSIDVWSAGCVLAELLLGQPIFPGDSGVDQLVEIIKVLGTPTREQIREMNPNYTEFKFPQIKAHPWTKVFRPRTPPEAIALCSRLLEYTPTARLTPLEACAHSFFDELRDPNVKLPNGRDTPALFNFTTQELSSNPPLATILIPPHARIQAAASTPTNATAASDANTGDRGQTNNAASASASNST
Sequence of Cyclin-dependent kinase 1 (P06493 whole entry): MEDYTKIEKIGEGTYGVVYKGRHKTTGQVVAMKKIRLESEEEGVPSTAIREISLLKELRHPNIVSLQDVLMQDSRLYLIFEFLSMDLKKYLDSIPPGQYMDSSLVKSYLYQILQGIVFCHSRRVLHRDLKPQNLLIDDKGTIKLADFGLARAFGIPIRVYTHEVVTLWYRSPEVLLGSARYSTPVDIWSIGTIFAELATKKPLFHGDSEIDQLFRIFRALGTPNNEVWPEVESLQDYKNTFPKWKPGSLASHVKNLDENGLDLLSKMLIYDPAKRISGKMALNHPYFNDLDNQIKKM
Sequence of Fibroblast growth factor receptor 3 (P22607 whole entry): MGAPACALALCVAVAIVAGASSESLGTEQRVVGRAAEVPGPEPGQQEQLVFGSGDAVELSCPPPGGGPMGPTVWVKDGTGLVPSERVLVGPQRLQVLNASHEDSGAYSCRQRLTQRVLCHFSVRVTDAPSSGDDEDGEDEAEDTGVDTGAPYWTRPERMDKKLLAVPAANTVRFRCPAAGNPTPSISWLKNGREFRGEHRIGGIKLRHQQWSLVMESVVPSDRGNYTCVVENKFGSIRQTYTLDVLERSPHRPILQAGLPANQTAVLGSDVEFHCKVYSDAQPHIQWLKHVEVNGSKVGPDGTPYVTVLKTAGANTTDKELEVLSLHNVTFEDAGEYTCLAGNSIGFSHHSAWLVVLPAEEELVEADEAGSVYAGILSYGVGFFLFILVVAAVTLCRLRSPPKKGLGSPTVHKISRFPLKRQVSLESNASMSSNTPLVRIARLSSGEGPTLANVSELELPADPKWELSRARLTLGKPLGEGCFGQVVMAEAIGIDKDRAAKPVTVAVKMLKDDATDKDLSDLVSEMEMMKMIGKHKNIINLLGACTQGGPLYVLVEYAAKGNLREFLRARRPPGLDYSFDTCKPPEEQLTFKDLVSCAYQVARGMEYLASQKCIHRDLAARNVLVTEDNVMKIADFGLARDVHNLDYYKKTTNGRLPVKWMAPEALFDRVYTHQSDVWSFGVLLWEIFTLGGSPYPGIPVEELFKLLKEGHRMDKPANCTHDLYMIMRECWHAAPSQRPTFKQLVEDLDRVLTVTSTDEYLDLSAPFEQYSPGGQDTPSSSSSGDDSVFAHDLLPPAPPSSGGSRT
Sequence of Non-receptor tyrosine-protein kinase TYK2 (P29597 whole entry): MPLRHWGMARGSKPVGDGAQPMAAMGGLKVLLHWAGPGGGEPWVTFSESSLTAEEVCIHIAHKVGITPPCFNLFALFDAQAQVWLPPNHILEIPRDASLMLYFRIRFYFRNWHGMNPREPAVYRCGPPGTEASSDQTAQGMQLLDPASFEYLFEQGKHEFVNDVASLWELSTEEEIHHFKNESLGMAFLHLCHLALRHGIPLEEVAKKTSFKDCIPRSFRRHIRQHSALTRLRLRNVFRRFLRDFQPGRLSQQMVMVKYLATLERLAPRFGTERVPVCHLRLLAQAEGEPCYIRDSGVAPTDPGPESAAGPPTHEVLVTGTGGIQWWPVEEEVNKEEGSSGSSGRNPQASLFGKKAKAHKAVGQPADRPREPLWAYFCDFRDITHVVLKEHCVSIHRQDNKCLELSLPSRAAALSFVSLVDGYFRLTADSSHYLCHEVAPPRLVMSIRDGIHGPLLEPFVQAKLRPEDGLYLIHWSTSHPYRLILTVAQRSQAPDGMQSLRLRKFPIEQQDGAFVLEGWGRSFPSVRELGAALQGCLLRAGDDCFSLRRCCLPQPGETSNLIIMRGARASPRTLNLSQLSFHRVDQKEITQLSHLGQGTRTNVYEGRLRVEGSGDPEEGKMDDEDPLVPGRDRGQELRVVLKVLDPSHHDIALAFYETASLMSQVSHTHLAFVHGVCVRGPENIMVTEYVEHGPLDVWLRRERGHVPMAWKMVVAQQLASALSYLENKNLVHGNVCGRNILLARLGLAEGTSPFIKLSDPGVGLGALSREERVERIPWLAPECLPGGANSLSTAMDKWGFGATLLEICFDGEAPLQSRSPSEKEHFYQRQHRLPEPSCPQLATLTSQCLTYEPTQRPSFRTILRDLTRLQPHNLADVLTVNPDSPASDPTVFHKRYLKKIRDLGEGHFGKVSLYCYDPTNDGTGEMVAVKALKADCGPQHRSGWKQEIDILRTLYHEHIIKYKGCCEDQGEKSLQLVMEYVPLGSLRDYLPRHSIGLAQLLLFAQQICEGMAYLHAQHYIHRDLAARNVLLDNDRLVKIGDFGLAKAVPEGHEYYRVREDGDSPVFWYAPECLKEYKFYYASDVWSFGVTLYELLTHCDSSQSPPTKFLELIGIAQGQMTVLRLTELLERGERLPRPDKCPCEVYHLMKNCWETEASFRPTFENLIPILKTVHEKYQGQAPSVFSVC
Sequence of Receptor-type tyrosine-protein kinase FLT3 (P36888 whole entry): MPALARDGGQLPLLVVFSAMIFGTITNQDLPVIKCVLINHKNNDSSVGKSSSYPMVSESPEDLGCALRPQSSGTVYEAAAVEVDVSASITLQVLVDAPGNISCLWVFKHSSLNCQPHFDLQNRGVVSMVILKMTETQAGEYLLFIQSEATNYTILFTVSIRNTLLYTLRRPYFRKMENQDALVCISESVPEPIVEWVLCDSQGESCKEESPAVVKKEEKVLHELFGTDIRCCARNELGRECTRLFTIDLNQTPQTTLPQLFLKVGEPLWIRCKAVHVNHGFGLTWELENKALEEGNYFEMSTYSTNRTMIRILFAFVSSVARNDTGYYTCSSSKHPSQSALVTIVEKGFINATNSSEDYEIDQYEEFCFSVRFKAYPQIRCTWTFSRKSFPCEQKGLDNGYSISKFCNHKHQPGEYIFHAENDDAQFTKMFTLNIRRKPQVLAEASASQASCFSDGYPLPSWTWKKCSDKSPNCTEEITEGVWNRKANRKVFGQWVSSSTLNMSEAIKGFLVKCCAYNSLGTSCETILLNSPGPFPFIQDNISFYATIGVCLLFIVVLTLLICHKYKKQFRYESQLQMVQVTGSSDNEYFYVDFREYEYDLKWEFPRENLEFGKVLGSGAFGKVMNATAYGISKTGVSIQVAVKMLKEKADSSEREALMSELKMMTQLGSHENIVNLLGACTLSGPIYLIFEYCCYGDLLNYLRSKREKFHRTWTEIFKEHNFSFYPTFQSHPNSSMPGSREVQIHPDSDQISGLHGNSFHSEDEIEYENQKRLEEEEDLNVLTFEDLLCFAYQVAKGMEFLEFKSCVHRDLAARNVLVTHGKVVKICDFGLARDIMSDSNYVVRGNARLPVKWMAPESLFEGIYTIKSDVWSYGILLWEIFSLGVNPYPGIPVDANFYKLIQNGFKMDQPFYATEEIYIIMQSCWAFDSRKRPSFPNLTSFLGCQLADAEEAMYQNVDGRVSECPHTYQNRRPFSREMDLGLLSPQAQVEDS
Sequence of Small ubiquitin-related modifier 1 (P63165 whole entry): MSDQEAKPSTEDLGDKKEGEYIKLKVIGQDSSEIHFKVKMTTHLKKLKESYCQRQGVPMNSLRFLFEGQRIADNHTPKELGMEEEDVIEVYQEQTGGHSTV

As to `Cc1cc(N)c2cc(NC(=O)/C=C/c3ccccc3Cl)ccc2n1`, the concentration for a half-maximal effect (EC50) is 2790 nM (inconclusive) in [1], 2880 nM (active) in [2] and > 54700 nM (inactive) in [6]. Moreover, the IC50 in [3] is 18200 nM (active); in [4], 3500 nM (active); in [7] it was > 66600 nM (inactive); in [8] it was 23700 nM (active). In assay [5], the AC50 is 4260 nM (active).
In the case of `CC(=NNC(=N)N)c1cc(NC(=O)NCCCCCCNC(=O)Nc2cc(C(C)=NNC(=N)N)cc(C(C)=NNC(=N)N)c2)cc(C(C)=NNC(=N)N)c1`, the Ki in assay [9] was 6310 nM (active); in assay [10], 2510 nM (active); in assay [11], 316 nM (active); in [12], > 7940 nM (inactive); in assay [13], 2000 nM (active); in assay [14], 631 nM (active). For the same compound, the Ki is 501 nM (active) in assay [15]; 2000 nM (active) in assay [16]; 631 nM (active) in assay [17]; > 7940 nM (inactive) in assay [18]; 2000 nM (active) in assay [19]; 1580 nM (active) in [20]. The Ki in assay [21] is 501 nM (active); in assay [22] it was 3160 nM (active); in [23], 631 nM (active); in assay [24] it was > 2000 nM (inactive); in assay [25], > 6310 nM (inactive); in [26], > 2510 nM (inactive).
